Test results reported in PMC2813745, “A novel inhibitor of the PI3K/Akt pathway based on the structure of inositol 1,3,4,5,6-pentakisphosphate” (British Journal of Cancer, 2010).

Experiments:
Format in all cases: cell-based, human
[1] = test system: Akt phosphorylation at Ser473 and Thr308 in SKOV-3; assay: Akt activation by western blot in SKOV-3; settings: SKOV-3, 8 h or 24 h, serum free medium
Experimental: (§1) Akt activation was assessed by monitoring phosphorylation at its residues Ser473 and Thr308. Membranes were then stripped and re-probed with the indicated antibodies.

[2] = test system: Akt phosphorylation in PC3; assay: Akt activation by western blot in PC3; settings: PC3, 24 h, medium containing 0.5% FBS
Experimental: as §1

[3] = test system: Akt phosphorylation in ASPC1; assay: Akt activation by western blot in ASPC1; settings: ASPC1, results not shown
[4] = test system: SKOV-3; assay: Cell survival by cell counting, SKOV-3; settings: SKOV-3, 72 h
Experimental: (§2) Cells seeded in a 24-well plate were treated with the indicated compounds in serum free DMEM or DMEM containing 0.5% FBS (PC3). After 72 h, the number of surviving cells was assessed by manual cell counting or by using the cell counter CDA-500 (Sysmex, Milton Keynes, UK). Alternatively, after 48 h, the number of apoptotic cells was assessed by acridine orange/ethidium bromide assay as described ([Piccolo et al, 2004]; [Maffucci et al, 2005]). SRB test was carried out in SKOV-3 and PC3 seeded in 96-well plate (3800 cells per well or 5800 cells per well, respectively) after 72 h of treatment as described ([Cappella et al, 2001]).
(§3) The number of surviving cells was assessed by cell counting. Data are mean±s.e. of n=4 (A) and n=2 (B) independent experiments. ^**=P<0.05. […] The number of apoptotic cells was assessed by acridine orange/ethidium bromide assay. Data are mean±s.e. of three independent experiments. ^**=P<0.05.

[5] = test system: PC3; assay: Cell survival by cell counting, PC3; settings: PC3, 72 h
Experimental: as §2
The number of surviving cells was assessed by cell counting. Data are mean±s.e. of n=3 (A), n=6 (B), n=3 (C) and n=4 (D) independent experiments carried out in duplicate. ^*=P<0.01; ^**=P<0.05. […] After 72 h the number of surviving cells was assessed by SRB assay. Data are mean±s.e. of n=2 independent experiments.
Data are mean±s.e. of n=4 independent experiments carried out in duplicate. […] Data are mean±s.e. of n=5 independent experiments carried out in duplicate. […] In all cases (A–D), cells were treated for 72 h and the number of surviving cells was assessed by cell counting. […] In all cases (E, F), cells were treated for 72 h and the number of surviving cells was assessed by SRB assay and data are mean±s.e. of two experiments carried out in quadruplicate.

[6] = test system: MCF7; assay: Cell survival by cell counting, MCF7; settings: MCF7, 72 h, 20 nM 4-OH Tamoxifen, 50 μM 2-O-Bn-InsP5 alone or in combination
Experimental: as §2
Data are mean±s.e. of n=4 independent experiments carried out in duplicate. […] Data are mean±s.e. of n=5 independent experiments carried out in duplicate. […] Data are mean±s.e. of n=6 independent experiments carried out in duplicate. […] Data are mean±s.e. of n=2 independent experiments carried out in duplicate. In all cases (A–D), cells were treated for 72 h and the number of surviving cells was assessed by cell counting. […] In all cases (E, F), cells were treated for 72 h and the number of surviving cells was assessed by SRB assay and data are mean±s.e. of two experiments carried out in quadruplicate.

[7] = test system: SKBR3; assay: Acridine orange/ethidium bromide apoptosis assay, SKBR3
Experimental: as §2, §3

[8] = test system: SKOV-3; assay: Acridine orange/ethidium bromide apoptosis assay, SKOV-3; settings: SKOV-3, acridine orange/ethidium bromide assay
Experimental: as §2, §3

## O=P(O)(O)OC1C(OCc2ccccc2)C(OP(=O)(O)O)C(OP(=O)(O)O)C(OP(=O)(O)O)C1OP(=O)(O)O (stereo not drawn) [2-O-Bn-InsP5, 2-O-benzyl-myo-inositol 1,3,4,5,6-pentakisphosphate]
[1]
  Akt phosphorylation at residue Ser473: inhibited Akt phosphorylation at its residue Ser473 more efficiently than InsP5 in SKOV-3, being already active after 8 h of treatment and at a concentration of 20 μM
  Akt phosphorylation at residue Thr308: Inhibition of Akt phosphorylation at residue Thr308 was also detected
[2]
  Akt phosphorylation: able to block Akt phosphorylation
[3]
  Akt phosphorylation: able to block Akt phosphorylation
[4]
  number of surviving cells: strongly reduced the number of surviving
[5]
  number of surviving cells: stronger activity of 2-O-Bn-InsP5 compared with InsP5
[6]
  number of surviving cells: little effect
[7]
  percentage of apoptotic cells: percentage of apoptotic cells was higher in 2-O-Bn-InsP5-treated compared with InsP5-treated
[8]
  percentage of apoptotic cells: percentage of apoptotic cells was higher in 2-O-Bn-InsP5-treated compared with InsP5-treated
